Measurements taken from patent publication US20110091473A1, “NOVEL ANTIBODY THERAPIES” (GENMAB A/S, priority 2007, published 2011).

Tests used:
[1] = Cholesterol blood level of hypercholesterolemic patients treated with atorvastatin; type: in vivo, human; conditions: day 3 vs day 0, single dose 80 mg, five patients
Description: Further, the influence of cholesterol depletion in freshly isolated B cells of hypercholesterolemic patients treated with atorvastatin was studied. A small exploratory clinical trial was performed in which hypercholesterolemic patients (n=5) were treated with a single dose of 80 mg atorvastatin (taken in the evening) in order to reduce their cholesterol blood level and determine the effect on CD20 mAb binding on isolated B cells using flow cytometry. Approval of the study was obtained from the ethics review board of the Warsaw University Medical Center. Informed consent was provided according to the Declaration of Helsinki. […]
The cholesterol blood level was measured using automated dry chemistry system (Vitroz 250 System Chemistry (Ortho-Clinical Diagnostics, Johnson&Johnson, Piscataway, N.J.). A starting cholesterol blood level of […] was required for patients to enroll in the clinical trial. At time of recruitment, patient I.D.#4 presented with a cholesterol blood concentration […], and as such was considered hypercholesterolemic. At time of recruitment the blood cholesterol level of patient I.D.#5 turned out to be below this cut off value, and thus it can be argued whether this patient should be considered hypercholesterolemic. […] Cholesterol blood levels were subsequently measured on day 0 (pretreatment) and day 3 after treatment. […]

[2] = tested on: CD20 in the plasma membrane; assay: CD20 localization in RAJI-CD20high cells (immunofluorescence, surface biotinylation); type: cell-based, human
Description: To examine localization of CD20 in RAJI-CD20high cells a double immunofluorescence staining with anti-CD20 mAb directed against an extracellular conformational epitope of CD20, and, after cell permeabilization, with a mAb against a linear epitope in the cytosolic tail of this molecule was performed. Control and lovastatin-pretreated RAJI-CD20high cells were stained in suspension at a density of 5×10^5/ml with FITC-conjugated B9E9 (1:10 in PBS, Immunotech Coulter Company, France) for 30 minutes at room temperature. After washing in PBS (three times), 200 μl of the cell suspension was spun onto a Cytospin slide. The slides were air-dried, acetone-fixed for 15 minutes at room temperature, washed three times with PBS, incubated with anti-CD20 mAb (Novocastra) (1:100 in PBS with 5% normal donkey serum (Jackson)) for 60 minutes at room temperature. The slides were washed three times in PBS and incubated with donkey anti-mouse Alexa555 conjugated antibody (Molecular Probes, CA) (1:200 for 30 minutes at room temperature). The slides were washed, mounted in Vectashield (Vector Laboratories, CA.) and examined by fluorescence microscopy (Leica TCS SP2). […] After five washes, gel-bound complexes were boiled in 2× Laemmli sample buffer and analyzed for CD20 by Western blotting using anti-CD20 mAb (NCL-CD20-L26, Novocastra) as described in Example 8.

[3] = tested on: cell surface proteins on RAJI cells; assay: FACS binding of mAbs to cell surface proteins on RAJI cells; type: cell-based, human; conditions: 10 μM lovastatin
Description: B cells (either non-treated cells, cholesterol-depleted cells via MβCD or lovastatin, or cholesterol-reconstituted cells) were characterized for quantitative surface expression of the B cell markers CD19, CD20, and CD21, the T-cell marker CD3, complement regulatory proteins CD55 and CD59, and HLA-DR and CD81 by direct immunofluorescence. […] After washing twice with FACS buffer (PBS, 0.1% Bovine Serum Albumine, 0.02% Sodium Azide), the cells were analyzed on a flow cytometer.

[4] = tested on: RAJI-CD20high cells; assay: Rituximab-mediated CDC of RAJI-CD20high cells, MTT assay; type: cell-based, human; conditions: lovastatin concentration range 48 hours; 10% complement active serum
Text: Statins are competitive inhibitors of 3-hydroxy-3-methylglutaryl-coenzyme A reductase (HMG-CoAR). HMG-CoAR is a rate-limiting enzyme of the mevalonate pathway essential for the synthesis of isoprenoid compounds including cholesterol (McTaggart S J (2006) Isoprenylated proteins. Cell Mol Life Sci 63:255-267). By inhibiting HMG-CoAR, statins can lower the cholesterol blood level and extract cholesterol from the cell membrane. To determine the effect of statin-mediated cholesterol depletion on immunotherapy RAJI-CD20high cells were cultured with a concentration range of lovastatin or diluent for 48 hours.
Cell viability was measured in a MTT assay in which 3-(4,5-dimethylthiazol-2-yl)-2,5-diphenyltetrazolium bromide (MTT) solution (5 mg/ml, Roche, Diagnostics, Almere, The Netherlands) was added to each well (flat-bottom microtiter plates; Nunc, Rochester, N.Y.). The reaction was stopped after 4 hours of incubation at 37° C. by the addition of 100 μl of 20% SDS (Roche Diagnostics, Almere, The Netherlands). After overnight incubation at 37° C. the absorbance of the samples was measured at 550-525 nm using an Elisa reader (EL808x, Biotek instruments, Highland park, Vt., USA). Cytotoxicity was expressed as a relative viability of the rituximab-mediated CDC of lovastatin-treated cells compared to cells incubated with medium only and was calculated as follows: relative viability=[(Ae−Ab)/(Ac−Ab)]*100, where Ab is the background absorbance, Ae is experimental absorbance of the lysed cells and Ac is the absorbance of untreated cells. The viability was expressed as percentage survival in comparison to non-cholesterol depleted cells (control).
RAJI-CD20high cells were incubated with diluents (control) or a concentration range of either Fillipin III for 30 minutes or Berberine chloride for 24 hours. […] The cytotoxic effects were measured in a MTT assay. […] After overnight incubation at 37° C. the absorbance of the samples was measured at 550-525 nm using an Elisa reader (EL808x, Biotek instruments, Highland park, Vt., USA). […]

[5] = tested on: CD20 mRNA; assay: CD20 mRNA level by RT-PCR in RAJI-CD20high cells; type: cell-based, human; conditions: 10 μM, time course over 48 hours
Description: To analyze whether lovastatin treatment would influence CD20 expression mRNA expression of the target was determined. RAJI-CD20high cells were incubated with either diluent (control) or 10 μM of lovastatin for different time periods (1-48 hours). Cells were washed twice with PBS, pelleted and treated with 1 ml of TRIzol Reagent (Invitrogen) to extract total RNA according to the manufacturer's protocol. RNA concentration was measured with Eppendorf Biophotometer (Eppendorf, Hamburg, Germany). The first strand cDNA synthesis containing 1 μg of total RNA was primed with oligo(dT) using Omniscript RT Kit (Qiagen, Chatsworth, Calif.). Primers used for CD20 PCR amplification were: forward-5′ […]3′ and reverse-5′ […]3′. The cycling conditions in the Mastercycler personal (Eppendorf) consisted of a first step of 94° C. denaturation for 10 minutes, followed by 35 cycles of annealing at 54° C. for 60 sec, extension at 75° C. for 90 sec, and denaturation at 94° C. for 30 sec, with a final elongation step at 75° C. for 10 minutes using HotStart Taq DNA Polymerase (Qiagen). Amplification products were analyzed by 1.5% agarose gel electrophoresis.

[6] = tested on: CD20 protein; assay: Total cellular CD20 protein level by Western blotting in RAJI-CD20high cells; type: cell-based, human; conditions: 5-30 μM, 48 hours
Description: Control cells or cells incubated with 10 μM lovastatin for 48 hours, washed twice with PBS, were pelleted and lysed with radioimmunoprecipitation assay (RIPA) buffer containing Tris base 50 mM, NaCl 150 mM, NP-40 1%, sodium deoxycholate 0.25% and EDTA 1 mM supplemented with Complete® protease inhibitor cocktail tablets (Roche Diagnostics, Mannheim, Germany). Protein concentration was measured using Bio-Rad Protein Assay (BioRad, Hercules, Calif., USA). Equal amounts of whole cell proteins were separated on 12.5% SDS-polyacrylamide gel, transferred onto Protran® nitrocellulose membranes (Schleicher and Schuell BioScience Inc., Keene, N.H.), blocked with TBST (Tris buffered saline (pH 7.4) and 0.05% Tween 20) supplemented with 5% nonfat milk and 5% FBS. The following mAb (at 1:1000 dilution) were used for the overnight incubation: anti-CD20 (NCL-CD20-L26, Novocastra Laboratories Ltd, UK), anti-ICAM-1 (Santa Cruz, Santa Cruz, Calif.). After extensive washing with TBST, the membranes were incubated for 45 minutes with peroxidase conjugated ImmunoPure Goat Anti-Mouse IgG [F(ab′)2] (Jackson ImmunoResearch Laboratories Inc, Pa.). The chemiluminescence reaction for horseradish peroxidase was developed using SuperSignal WestPico Trail Kit® (Pierce, Rockford, Ill.) on a standard x-ray film. […]

CC(C)c1c(C(=O)Nc2ccccc2)c(-c2ccccc2)c(-c2ccc(F)cc2)n1CC[C@@H](O)C[C@@H](O)CC(=O)O [atorvastatin]
reduction of average cholesterol blood concentration [1]: 17%

CC[C@H](C)C(=O)O[C@H]1C[C@@H](C)C=C2C=C[C@H](C)[C@H](CC[C@@H]3C[C@@H](O)CC(=O)O3)[C@H]21 [lovastatin]
binding of mAb directed to the extracellular epitope of CD20 ([2]; 48-hour pre-treatment, confocal immunofluorescence): nearly completely abrogated binding
CD20 detectable among biotinylated surface proteins ([2]; treated cells compared with controls): comparable amounts
decrease of mAb binding of CD21 [3]: not
mAb binding of CD19 and CD20 [3]: clearly decreased
protection from rituximab-induced CDC (cell viability) [4]: concentration-dependent protection
mRNA level for CD20 [5]: remained constant
total cellular CD20 protein level [6]: did not influence
